The half-life is how long it takes for the measured level to halve.

Structures are written as SMILES. The source made the active and inactive calls. The rule behind the calls is not given here.

Series [1] has as its system CAL-27. The experiment in a line: Induction of apoptosis in human CAL-27 cells assessed as late apoptotic cells at 1000 nM incubated for 72 hrs by Annexin V-FITC/propidium iodide staining based flow cytometry analysis (reference value: 1.82%). Type of series: functional. (Flow cytometry measures light scatter and fluorescence of single cells or particles in a stream.)

In series [2] the test system is CAL-27. In words: Induction of apoptosis in human CAL-27 cells assessed as viable cells at 10 nM incubated for 72 hrs by Annexin V-FITC/propidium iodide staining based flow cytometry analysis (reference value: 90.41%). Type of series: functional. Particulars: read-out: Activity.
For series [3], the system named is CAL-27. In words: Induction of apoptosis in human CAL-27 cells assessed as late apoptotic cells at 100 nM incubated for 72 hrs by Annexin V-FITC/propidium iodide staining based flow cytometry analysis (reference value: 1.82%). Type of series: functional.
The test system of series [4] is CAL-27. In words: Antitumor activity against human CAL-27 cells xenografted in BALB/c mouse model assessed as reduction in nuclear division at 0.6 mg/kg, iv treated four times a week for 30 days by HE staining analysis. Type of series: functional, organism-based. The settings on record: time 30.0 day. Background: In xenograft studies the graft and the host belong to different species.

Series [5] deals with CAL-27. In words: Effect on cell adhesion molecule in human CAL-27 cells assessed as regulation of gene expression at 1 nM incubated for 48 hrs by GSEA analysis. Type of series: functional, cell-based.
The subject of series [6] is CAL-27. The experiment in a line: Effect on cell cycle in human CAL-27 cells assessed as regulation of gene expression at 1 nM incubated for 48 hrs by GSEA analysis. Type of series: functional, cell-based.
For series [7], the system named is CAL-27. In words: Induction of apoptosis in human CAL-27 cells assessed as early apoptotic cells at 100 nM incubated for 72 hrs by Annexin V-FITC/propidium iodide staining based flow cytometry analysis (reference value: 7.74%). Type of series: functional.
For series [8], the system named is CAL-27. In words: Induction of apoptosis in human CAL-27 cells assessed as viable cells at 100 nM incubated for 72 hrs by Annexin V-FITC/propidium iodide staining based flow cytometry analysis (reference value: 90.41%). The format is functional. The settings on record: read-out: Activity.
In series [9] the test system is CAL-27. The experiment in a line: Antitumor activity against human CAL-27 cells xenografted in BALB/c mouse model assessed as reduction in tumor weight at 0.3 mg/kg, iv treated four times a week for 30 days. Further details: scale not given: the % may be the effect or the level left. The format is functional. The settings on record: time 30 day.
The test system of series [10] is CAL-27. The experiment in a line: Effect on cell growth factor in human CAL-27 cells assessed as regulation of cell growth factor related gene expression at 1 nM incubated for 48 hrs by GO analysis. The format is functional, cell-based.
Series [11] has as its system CAL-27. The experiment in a line: Induction of apoptosis in human CAL-27 cells assessed as late apoptotic cells at 10 nM incubated for 72 hrs by Annexin V-FITC/propidium iodide staining based flow cytometry analysis (reference value: 1.82%). Type of series: functional.
The test system of series [12] is CAL-27. In words: Antitumor activity against human CAL-27 cells xenografted in BALB/c mouse model assessed as cancer cell death at 0.6 mg/kg, iv treated four times a week for 30 days by HE staining analysis. The settings on record: time 30.0 day. Type of series: functional, organism-based.
Series [13] deals with CAL-27. The experiment in a line: Induction of apoptosis in human CAL-27 cells assessed as viable cells at 1 nM incubated for 72 hrs by Annexin V-FITC/propidium iodide staining based flow cytometry analysis (reference value: 90.41%). Type of series: functional. The settings on record: read-out: Activity.
Series [14] can be described thus: Toxicity in BALB/c mouse xenografted with human CAL-27 cells assessed as body weight at 0.6 mg/kg, iv treated four times a week for 30 days. Type of series: organism-based. Particulars: in vivo, 720 h, time 30 day.
Series [15] has as its system CAL-27. The experiment in a line: Induction of apoptosis in human CAL-27 cells assessed as viable cells at 1000 nM incubated for 72 hrs by Annexin V-FITC/propidium iodide staining based flow cytometry analysis (reference value: 90.41%). Particulars: read-out: Activity. Type of series: functional.
The subject of series [16] is CAL-27. The experiment in a line: Induction of cell cycle arrest in human CAL-27 cells assessed as accumulation of cells at G1 phase at 1 to 1000 nM incubated for 48 hrs by flow cytometry analysis (Rvb= 58.6%). Type of series: functional. Particulars: dose 1-1000 nM.
For series [17], the system named is CAL-27. The experiment in a line: Induction of apoptosis in human CAL-27 cells assessed as apoptotic cells at 100 nM incubated for 72 hrs by Annexin V-FITC/propidium iodide staining based flow cytometry analysis (reference value: 10.29%). Type of series: functional.
For series [18], the system named is CAL-27. The experiment in a line: Induction of apoptosis in human CAL-27 cells assessed as early apoptotic cells at 1 nM incubated for 72 hrs by Annexin V-FITC/propidium iodide staining based flow cytometry analysis (reference value: 7.74%). Type of series: functional.
Series [19] relates to CAL-27. The experiment in a line: Induction of apoptosis in human CAL-27 cells assessed as late apoptotic cells at 1 nM incubated for 72 hrs by Annexin V-FITC/propidium iodide staining based flow cytometry analysis (reference value: 1.82%). The format is functional.
Series [20] has as its system CAL-27. In words: Antiproliferative activity against human CAL-27 cells assessed as inhibition of cell communities at 1 uM treated for 11 days by plate clone formation assay. The format is functional, cell-based. Particulars: time 11.0 day.
Series [21] has as its system CAL-27. The experiment in a line: Induction of cell cycle arrest in human CAL-27 cells assessed as accumulation of cells at S phase at 1 to 1000 nM incubated for 48 hrs by flow cytometry analysis (Rvb=18%). The settings on record: dose 1-1000 nM. The format is functional.
For series [22], the system named is CAL-27. The experiment in a line: Induction of apoptosis in human CAL-27 cells assessed as apoptotic cells at 10 nM incubated for 72 hrs by Annexin V-FITC/propidium iodide staining based flow cytometry analysis (reference value: 10.29%). Type of series: functional.
In series [23] the test system is CAL-27. In words: Antitumor activity against human CAL-27 cells xenografted in BALB/c mouse model assessed as reduction in reduction in Ki-67 expression at 0.6 mg/kg, iv treated four times a week for 30 days by immunohistochemical staining analysis. The settings on record: time 30.0 day. Type of series: functional, organism-based.
Series [24] can be described thus: Half life in ICR mouse at 3 mg/kg, po measured upto 24 hrs by LC-MS/MS analysis. The format is ADME, organism-based. The settings on record: in vivo.
Series [25] relates to CAL-27. In words: Induction of apoptosis in human CAL-27 cells assessed as apoptotic cells at 1 nM incubated for 72 hrs by Annexin V-FITC/propidium iodide staining based flow cytometry analysis (reference value: 10.29%). The format is functional.
For series [26], the system named is CAL-27. In words: Induction of apoptosis in human CAL-27 cells assessed as early apoptotic cells at 1 nM incubated for 72 hrs by Annexin V-FITC/propidium iodide staining based flow cytometry analysis (reference value: 9.16%). The format is functional.
The test system of series [27] is CAL-27. In words: Induction of apoptosis in human CAL-27 cells assessed as viable cells at 1 nM incubated for 72 hrs by Annexin V-FITC/propidium iodide staining based flow cytometry analysis (reference value: 88.23%). Particulars: read-out: Activity. Type of series: functional.
The test system of series [28] is CAL-27. In words: Induction of apoptosis in human CAL-27 cells assessed as late apoptotic cells at 100 nM incubated for 72 hrs by Annexin V-FITC/propidium iodide staining based flow cytometry analysis (reference value: 2.57%). Type of series: functional.
For series [29], the system named is CAL-27. The experiment in a line: Induction of apoptosis in human CAL-27 cells assessed as early apoptotic cells at 1000 nM incubated for 72 hrs by Annexin V-FITC/propidium iodide staining based flow cytometry analysis (reference value: 9.16%). Type of series: functional.
Series [30] has as its system CAL-27. The experiment in a line: Induction of apoptosis in human CAL-27 cells assessed as early apoptotic cells at 100 nM incubated for 72 hrs by Annexin V-FITC/propidium iodide staining based flow cytometry analysis (reference value: 9.16%). Type of series: functional.
Series [31] relates to CAL-27. In words: Induction of apoptosis in human CAL-27 cells assessed as late apoptotic cells at 10 nM incubated for 72 hrs by Annexin V-FITC/propidium iodide staining based flow cytometry analysis (reference value: 2.57%). The format is functional.
In series [32] the test system is CAL-27. The experiment in a line: Induction of apoptosis in human CAL-27 cells assessed as viable cells at 1000 nM incubated for 72 hrs by Annexin V-FITC/propidium iodide staining based flow cytometry analysis (reference value: 88.23%). Particulars: read-out: Activity. Type of series: functional.
The subject of series [33] is CAL-27. The experiment in a line: Induction of apoptosis in human CAL-27 cells assessed as late apoptotic cells at 1000 nM incubated for 72 hrs by Annexin V-FITC/propidium iodide staining based flow cytometry analysis (reference value: 2.57%). Type of series: functional.

Regarding `COc1cc2c(O[C@@H]3O[C@@H]4CO[C@@H](c5ccsc5)O[C@H]4[C@H](O)[C@H]3O)c3c(c(-c4ccc5c(c4)OCO5)c2cc1OC)C(=O)OC3`, the Activity in the series with CAL-27 [1] was 36.94%; in the series on CAL-27 [3], 41.19%; with CAL-27 [7] it was 27.61%; in the series on CAL-27 [9], 34%; in the series with CAL-27 [11] it was 25.74%; in [14] it was “Non-toxic”. The Activity in the series on CAL-27 [16] is on record as 78.7%; with CAL-27 [17], 50.9%; in the series with CAL-27 [18] it was 4.74%; in the series on CAL-27 [19] it was 2.19%; with CAL-27 [20] it was “Active; Showed More Potent Suppression”; in the series on CAL-27 [21], 6%. Besides, the figures for the Activity with CAL-27 [22] and in the series with CAL-27 [25] were 41.84% and 15.78%, respectively. Besides, the viability at 0.01 µM with CAL-27 [2] worked out at 55%. The outcome in the series with CAL-27 [4], in the series with CAL-27 [5], with CAL-27 [6], with CAL-27 [10], in the series with CAL-27 [12] and with CAL-27 [23] was Active. Moreover, in the series with CAL-27 [8], the viability at 0.1 µM was determined as 28.6%. The viability at 0.001 µM in the series with CAL-27 [13] is 93%. Moreover, in the series with CAL-27 [15], the viability at 1 µM is 28.1%. The compound also showed a half-life in series [24] of 31 min.

As to `COc1cc2c(O)c3c(c(-c4ccc5c(c4)OCO5)c2cc1OC)C(=O)OC3` [DIPHYLLIN], the Activity is listed as 2.68% with CAL-27 [26]; 2.58% with CAL-27 [28]; 12.06% in the series with CAL-27 [29]; 4.87% with CAL-27 [30]; 1.34% in the series on CAL-27 [31]; 5.03% in the series with CAL-27 [33]. The viability at 0.001 µM with CAL-27 [27] came to 91.4%. For the same compound, the viability at 1 µM in the series on CAL-27 [32] stood at 82.8%.

The record behind these values is ChEMBL document CHEMBL6153048, “Synthesis and pharmacological evaluation of natural product diphyllin derivatives against head and neck squamous cell carcinoma” (Eur J Med Chem, 2025).
